According to ChEMBL document CHEMBL4706567, “Transthyretin Amyloidogenesis Inhibitors: From Discovery to Current Developments” (J Med Chem, 2020):

Key:
[1] = target: Transthyretin (Homo sapiens, UniProt P02766); assay: Binding affinity to wild type TTR (unknown origin) expressed in Escherichia coli BL21/DE3 by Circular dichroism spectroscopy
[2] = target: Transthyretin (Homo sapiens, UniProt P02766, V50M); assay: Stabilization of TTR V30M mutant (unknown origin) assessed as inhibition of protein-mediated amyloid fibril formation

Row | SMILES | Kd [1] [µM] | Kd [2] [µM]
1 | O=C(O)Cc1ccccc1Nc1c(Cl)cccc1Cl [DICLOFENAC] | 0.06 | 
2 | O=C(O)c1ccccc1Nc1cccc(C(F)(F)F)c1 [FLUFENAMIC ACID] | 0.03 | 
3 | O=C(CCc1ccc(O)cc1)c1c(O)cc(O)cc1O [PHLORETIN] |  | 8.1
4 | COc1cc(O)c(CC=C(C)C)c(O)c1C(=O)/C=C/c1ccc(O)cc1 [XANTHOHUMOL] |  | 12
